Laboratory results: publication PMC9886266, “New [1,2,4]triazolo[4,3-c]quinazolines as intercalative Topo II inhibitors: Design, synthesis, biological evaluation, and in silico studies” (PLOS ONE, 2023)

Assays:
HCT-116 cells = test: Flow cytometry cell cycle analysis (propidium iodide); type: cell-based, human; settings: HCT-116, 2.44 μM, 48 h, mean ± SEM
[1] = system: Activated Calf Thymus DNA; test: DNA/methyl green assay (DNA intercalation); type: binding
Procedure: The most promising members (13a, 14a, 16, 17, 18, 19, and 20) were further investigated for their binding affinity against DNA. […] The results of DNA-binding affinities were reported in Table 1 as IC50 values calculated from the concentration-inhibition response curve.
Activated Calf Thymus DNA (Merk, Germany) was treated with methyl green (Merk, Germany), then the synthesized compounds were applied to displace the methyl green dye, producing equivalent color.
(§1) After that, the DNA was run on 1% agarose gel in BioRad gel electrophoresis system for 1–2 h followed by staining with GelRedTM stain for 2 h and destained for 15 min with TAE buffer. The gel was imaged via BioRad’s Gel DocTMEZ system. Both supercoiled and linear strands DNA were incorporated in the gel as markers for DNA-Topo II intercalators. The results of IC50 values were calculated using the GraphPad Prism version 7. Each reaction was performed in duplicate, and at least three independent determinations of each IC50 were made.
S2.3. DNA/Methyl Green Assay […]
methyl green dye method described by Burres et al. Activated Calf Thymus DNA (Merk, Germany) was treated with methyl green (Merk, Germany), then the synthesized compounds were applied to displace the methyl green dye, producing equivalent color. […]

[2] = biological target: T1, Topoisomerase II (Topo II) (Homo sapiens, UniProt P11388); test: In vitro Topo II inhibitory assay (TopoGEN Topo II drug screening kit); type: biochemical
T1 construct: purchased TopoGEN, Inc., Columbus
Procedure: The reported method described by Patra et al was applied using Topo II drug screening kit (TopoGEN, Inc., Columbus).
A typical enzyme reaction was structured to determine Topo II activity. The reaction mixture included Topo II (2 μl), substrate super coiled pHot1 DNA (0.25 μg), 50 μg/ml test compound (2 μl), and assay buffer (4 μl). To start the reaction, the mixture was allowed to incubate in 37°C for 30 min. To terminate the reaction, a mixture of 10% sodium dodecylsulphate (2 μl) and proteinase K (50 μg/mL) was added at 37°C for 15 min. then incubated for 15 min at 37°C.
as §1, with “made. […]” for “made.”
S2.2. Measurement of topoisomerase II Activity […]
analyzed for their Topo II inhibitory activities. The reported method described by Patra et al was applied using Topo II drug screening kit (TopoGEN, Inc., Columbus).
A typical enzyme reaction was structured to determine Topo II activity. The reaction mixture included Topo II (2 µl), substrate super coiled pHot1 DNA (0.25 µg), 50 µg/ml test compound (2 µl), and assay buffer (4 µl). To start the reaction, the mixture was allowed to incubate in 37 °C for 30 min. To terminate the reaction, a mixture of 10% sodium dodecylsulphate (2 µl) and proteinase K (50 µg/mL) was added at 37 °C for 15 min. then incubated for 15 min at 37 °C.
as §1, with “made. […]” for “made.”

T1 sequence (P11388 whole entry): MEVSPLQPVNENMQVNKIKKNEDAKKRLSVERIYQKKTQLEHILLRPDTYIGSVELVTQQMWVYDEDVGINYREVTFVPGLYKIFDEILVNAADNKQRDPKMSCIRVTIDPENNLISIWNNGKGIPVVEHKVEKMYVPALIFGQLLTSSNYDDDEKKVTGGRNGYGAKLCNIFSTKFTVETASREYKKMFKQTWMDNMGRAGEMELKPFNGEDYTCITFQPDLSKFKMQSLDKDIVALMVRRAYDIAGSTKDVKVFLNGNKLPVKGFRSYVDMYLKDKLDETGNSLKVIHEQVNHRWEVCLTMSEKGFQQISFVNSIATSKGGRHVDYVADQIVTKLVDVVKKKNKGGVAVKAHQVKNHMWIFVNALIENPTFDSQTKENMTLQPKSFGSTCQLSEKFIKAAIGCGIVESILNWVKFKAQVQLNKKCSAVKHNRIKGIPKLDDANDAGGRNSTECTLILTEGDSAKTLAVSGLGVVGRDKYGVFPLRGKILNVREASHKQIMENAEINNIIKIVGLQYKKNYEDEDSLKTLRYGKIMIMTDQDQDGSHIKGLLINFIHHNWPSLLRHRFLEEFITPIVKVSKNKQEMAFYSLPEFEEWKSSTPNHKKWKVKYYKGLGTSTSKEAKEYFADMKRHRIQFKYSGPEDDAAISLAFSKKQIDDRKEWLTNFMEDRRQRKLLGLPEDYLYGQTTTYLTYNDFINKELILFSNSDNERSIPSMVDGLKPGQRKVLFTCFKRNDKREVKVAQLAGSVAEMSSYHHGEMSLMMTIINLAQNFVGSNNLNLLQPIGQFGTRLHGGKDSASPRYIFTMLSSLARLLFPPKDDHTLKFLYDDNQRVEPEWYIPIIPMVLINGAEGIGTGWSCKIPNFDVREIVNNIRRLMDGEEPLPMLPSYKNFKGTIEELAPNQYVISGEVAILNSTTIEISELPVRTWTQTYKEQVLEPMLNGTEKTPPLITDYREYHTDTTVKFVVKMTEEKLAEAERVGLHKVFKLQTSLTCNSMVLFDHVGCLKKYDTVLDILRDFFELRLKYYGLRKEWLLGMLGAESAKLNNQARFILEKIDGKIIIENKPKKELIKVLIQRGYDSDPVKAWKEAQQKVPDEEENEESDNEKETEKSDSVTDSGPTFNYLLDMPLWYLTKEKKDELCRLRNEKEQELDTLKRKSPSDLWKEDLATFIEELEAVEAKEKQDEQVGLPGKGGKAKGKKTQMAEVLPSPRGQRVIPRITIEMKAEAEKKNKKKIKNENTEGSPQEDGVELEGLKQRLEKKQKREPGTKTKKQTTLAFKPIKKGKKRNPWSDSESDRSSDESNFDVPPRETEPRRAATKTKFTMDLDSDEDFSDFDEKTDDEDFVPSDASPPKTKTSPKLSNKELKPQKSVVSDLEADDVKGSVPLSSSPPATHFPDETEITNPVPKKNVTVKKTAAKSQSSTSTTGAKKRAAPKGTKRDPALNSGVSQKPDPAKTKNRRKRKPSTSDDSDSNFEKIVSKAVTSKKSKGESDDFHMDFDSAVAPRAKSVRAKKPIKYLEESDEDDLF

## CCCNc1nc2ccccc2c2nnc(C(F)(F)F)n12 [Compound 16, N-Propyl-3-(trifluoromethyl)-[1,2,4]triazolo[4,3-c]quinazolin-5-amine]
HCT-116 cells
  Cell cycle distribution % G2/M: 36.89 ± 1.81 %
  Cell cycle distribution %G1: 19.05 ± 1.38 %
  Cell cycle distribution %S: 42.76 ± 2.48 %
  Cell cycle distribution %Sub-G1: 1.30 ± 0.18%
[1]; 50% inhibition concentration of DNA/methyl green assay, read-out: DNA/Methyl green (IC50)
  IC50: 10.2 ± 0.4 µM
[1]; log of drug concentration in uM, supplement curve fit
  LogIC50 (best-fit value, DNA/Topo-II Inhibition (%) curve): 1.011
[1]; supplement curve fit
  HillSlope (best-fit value, DNA/Topo-II Inhibition (%) curve): 0.3743
[2]
  IC50: 15.2 ± 0.9 µM
